For the assay, the target named is FXa (Homo sapiens, UniProt P00742). Kind of assay: Inhibition of factor Xa (Table 1, Pharmacological Data). The class given is biochemical.
Sequence of FXa (P00742 235-488 limits assumed): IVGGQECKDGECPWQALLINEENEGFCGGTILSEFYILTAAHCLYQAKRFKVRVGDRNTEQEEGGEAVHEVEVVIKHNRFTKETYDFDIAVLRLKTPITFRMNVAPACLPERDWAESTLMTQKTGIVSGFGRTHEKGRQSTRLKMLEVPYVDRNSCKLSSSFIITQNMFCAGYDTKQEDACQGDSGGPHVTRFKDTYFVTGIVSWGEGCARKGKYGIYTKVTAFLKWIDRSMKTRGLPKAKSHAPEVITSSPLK
Sequence of FXa (P00742 41-179 limits assumed): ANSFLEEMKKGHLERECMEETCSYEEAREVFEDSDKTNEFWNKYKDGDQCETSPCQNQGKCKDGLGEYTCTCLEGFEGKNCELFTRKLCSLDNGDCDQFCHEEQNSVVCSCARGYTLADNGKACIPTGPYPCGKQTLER

For `C#Cc1ccc(NC(=O)N2CCCN2C(=O)Nc2ccc(N3CCOCC3=O)c(Cl)c2)cc1` [Compound A1, 1-N-[(4-Ethynylphenyl)]-2-N-{[3-chloro-4-(3-oxomorpholin-4-yl)phenyl]}-pyrazolidine-1,2-dicarboxamide], the IC50 turned out to be 75 nM.
The value for `O=C1COCCN1c1ccc(NC(=O)N2CCCN2C(=O)Nc2ccc(Cl)cc2)cc1Cl` [Compound A2, 1-N-[(4-chlorophenyl)]-2-N-{[3-chloro-4-(3-oxomorpholin-4-yl)phenyl]}-pyrazolidine-1,2-dicarboxamide] was 120 nM; that for `O=C(Nc1ccc(Br)cc1)N1CCCN1C(=O)Nc1ccc(-n2ccccc2=O)cc1` [Compound A3, 1-N-[(4-bromophenyl)]-2-N-{[4-(2-oxo-2H-pyridin-1-yl)phenyl]}pyrazolidine-1,2-dicarboxamide] was 55 nM.

For the origin of these results see US7557102B2, “Pyrazolidine-1,2-dicarboxyldiphenylamide derivatives as coagulation factor Xa inhibitors for the treatment of thromboses” (Merck Patent GmbH, priority 2003, dated 2009).
